How the values were obtained:
Format in all cases: in vivo
APP23 mice = assay: Telemetric hippocampal EEG recordings (spike analysis, cross frequency coupling) in APP23 mice; details: for amplitude phase in EEG recordings / modulation index of cross frequency coupling: vs wt controls; for spike frequency / hypersynchronous discharges in EEG: intraperitoneal, 2 hours pre vs 2 hours post administration, and vs vehicle
Method: (§1) FIG. 3. LIMK1 inhibition reduced susceptibility to induced seizures and mitigated neuronal network hypersynchronisity in mice. (A) Excitotoxic seizures were induced by acute intraperitoneal injection of 50 mg/kg body weight pentylenetetrazole (PTZ) followed by timing and scoring (0=no seizures to 7=terminal status epilepticus) of seizure development. Mice were treated with vehicle or 10 mg/kg body weight LIMK1 inhibitor LIMKi intraperitoneally 30 minutes prior to seizure induction. […] (B) Compound hippocampal electroencephalography (EEG) recordings over 4 hours in non-transgenic (wt) and APP transgenic (APP23) mice including 2 hours before (Pre) and 2 hours after (Post) LIMKi or vehicle administration. Time of intraperitoneal LIMKi and vehicle administration is indicated with an arrow. […] Frequent spikes pre and post vehicle administration in APP23 mice. In contrast, LIMKi injection mitigates spike activity in APP23 post injection. […] From left to right: non-Tg+vehicle; non-Tg+LIMKi; APP23+vehicle; APP23+LIMKi.
Mice. APP23 express human Swedish mutant (K595N/M596L) amyloid-β precursor protein (APP) in neurons (Sturchler-Pierrat et al., 1997, Proc Natl Acad Sci USA 94, 13287-13292). Limk1^−/− mice have been reported previously (Meng et al., 2002, Neuron 35, 121-133). All mice were on a pure C57Bl/6 background. Mice were housed in standard individually ventilated cages on a 12 hour light/dark cycle with access to standard chow and water ad libitum. Mice of both genders were used unless otherwise indicated. Investigators were blinded to genotypes until after completion of data analysis. All experiments were approved by the Animal Ethics Committee of Macquarie University.
Electroencephalography. Hippocampal EEG recordings were done with implanted telemetric electrodes (D.S.I.) as previously described (Ittner et al., 2014, Acta neuropathologica communications 2, 149). All recordings were done with mice individually housed in their home cages one week after implantation of transmitters. Compound administration was done intraperitoneally during transient restraining of mice. Vehicle for the LIMK1 inhibitor LIMKi contained hydroxypropyl methylcellulose 606 (HPMC 606) with polyvinylpyrrolidone k17 (PVP k17) and tween 80 in a proportion of 0.5%, 0.5%, 0.1%, respectively. Spike analysis was done with the Neuroscore software module (D.S.I.) as previously described (Ittner et al., 2016, Science 354, 904-908). Cross frequency coupling of theta and gamma waves was performed as previously described (Ittner et al., 2016, Science 354, 904-908).
(§2) Next, the inventors tested the effects of acute Compound 1 administration on neuronal network activity in APP23 mice. […] Furthermore, CFC 1 hour after Compound 1 administration was re-established (data not shown). […] Thus, inhibition of LIMK1 with Compound 1 conferred protection from Aβ toxicity in neurons and from excitotoxicity in vivo. Furthermore, treatment of APP23 with Compound 1 corrected network aberrations including CFC.

C57Bl/6 mice = assay: Pentylenetetrazole (PTZ)-induced excitotoxic seizure model; details: for mean seizure severity (score 0 to 5): n=9
Method: as §1
Seizure model. Excitotoxic seizure were induced in mice by intraperitoneal injection of 50 mg/kg body weight pentylenetetrazole followed by observation in a square area (40×40 cm). Scoring of seizures was done as previously described (Ittner et al., 2010, Cell 142, 387-397). For LIMKi-treated mice, scoring was adjusted by combining the severe seizure scores 5 to 7 into a single score of 5. For both scales, minor to moderate seizures are reflected by scores <5.
as §2

non-transgenic (wt) mice = assay: Telemetric hippocampal EEG recordings in non-transgenic (wt) mice; details: pre and post intraperitoneal injection
Method: as §1
Electroencephalography. Hippocampal EEG recordings were done with implanted telemetric electrodes (D.S.I.) as previously described (Ittner et al., 2014, Acta neuropathologica communications 2, 149). All recordings were done with mice individually housed in their home cages one week after implantation of transmitters. […]

[1] = 1 hour after administration, n=8
[2] = 1 hour after administration, n=8, listed as LIMKi
[3] = 10 mg/kg intraperitoneally 30 minutes prior to 50 mg/kg PTZ i.p., vs vehicle controls

Cc1c[nH]c2ncnc(N3CCN(/C(=N\C#N)Nc4cccc(Br)c4)[C@@H](C)C3)c12 [Compound 1]
cross frequency coupling (CFC) (APP23 mice; 1 hour after administration, data not shown): re-established
amplitude phase in EEG recordings (APP23 mice; [1]): normalized
modulation index of cross frequency coupling (APP23 mice; [1]): normalized
amplitude phase in EEG recordings (APP23 mice; [2]): corrected 1 hour after LIMKi delivery and no longer different from wt controls
modulation index of cross frequency coupling (APP23 mice; [2]): corrected 1 hours after LIMKi administration and no longer different from wt controls
spike frequency / hypersynchronous discharges in EEG (APP23 mice; n=8): hypersynchronicity significantly decreased
spike frequency / hypersynchronous discharges in EEG (APP23 mice; n=8, listed as LIMKi): significantly reduced spike frequency
latency to develop severe seizures (C57Bl/6 mice; 10 mg/kg 30 minutes prior to PTZ, C57Bl/6 mice): increased the latency to develop severe seizures
development of severe seizure stages over time (score=5) (C57Bl/6 mice; [3]): Only vehicle-treated mice develop severe seizure stages over time
latency to develop lower grade seizures (score <5) (C57Bl/6 mice; [3]): Delayed latency to develop lower grade seizures
mean seizure severity (score 0 to 5) (C57Bl/6 mice; [3]): significantly reduced mean seizure severity
mean seizure severity (score 0 to 5) (C57Bl/6 mice; 10 mg/kg intraperitoneally 30 minutes prior to 50 mg/kg PTZ i.p., vs vehicle controls, listed as LIMKi): Significantly reduced seizure severity
spike activity in EEG (non-transgenic (wt) mice): No overt spike activity

Reference: US20220288081A1, “TREATMENT OF EXCITOTOXICITY-RELATED CONDITIONS” (priority 2019, published 2022)
